Laboratory results from publication PMC1978517, “Novel Decapeptides that Bind Avidly and Deliver Radioisotope to Colon Cancer Cells” (PLoS ONE, 2007).

What was measured:
[1] = tested on: eleven nonbinding cell lines (HeLa S3, RKO, 1271, A549, KYSE-70, HT1080, 293H, 1459, HEEpiC, T84, SK-BR-3); assay: Binding of 32P-labeled decapeptide to cell lines, two hour incubation, scintillation counting; format: cell-based
Procedure: (§2) Assay of the binding of ^32P-labeled decapeptides to cell lines: Cell lines were grown in complete medium containing 10% bovine fetal serum (heat inactivated). In each well of a 96-well plate, 10,000 cells from various cell lines were grown overnight in complete medium. Ten µl of the labeled-peptide in 1 X PBS and 90 µl of complete medium were added to each well and incubated at 37°C at various times of up to two hours. The peptide-medium was removed and one µl added to 100 ul gel loading buffer and counted by scintillation counting for the probe control or run on a polyacrylamide-SDS gel (Biorad).The adherent cells were briefly and gently washed with complete medium three times and some wells were assayed immediately by adding 100 µl of gel loading buffer to each well and run on a gel or counted in a scintillation counter. Other wells had 100 µl complete medium added and incubated for a further time period. Samples were either counted in a liquid scintillation counter or run on polyacrylamide-SDS gels, exposed to x-ray film, and the film developed.

[2] = tested on: seven avidly binding cell lines (Caco-2, HCT15, HCT116, LoVo, HT29, SEG1, QHTRT); assay: as above; format: cell-based; conditions: two hour incubation with 32P-labeled peptide, seven of the eighteen cell lines
Procedure: as §2

Caco-2 cells = assay: Release and retention of 32P counts after washing and further incubation in complete medium; format: cell-based
Procedure: (§1) The peptide binding, washing and assay experiment described for Figure 2 was then repeated in the seven most avidly binding cell lines using MA5, except that after three washes of medium, 200 ul of complete medium was added to each well and the cells were incubated overnight at 37°C. […] Approximately 88% of MA5 radioactive counts initially retained by the colon cancer cell lines was released into the medium, while approximately 12% of initially retained radioactive counts were retained by cells. The two esophageal cell lines that originally retained large amounts of radioactive counts, QH-TRT and SEG1, retained 39% and 37% of their original counts, respectively, after overnight incubation. Caco-2 cells retained the greatest number of counts, averaging 58,305 cpm in triplicate wells containing 10,000 cells each. This figure represents approximately 5.8 cpm, or 348 counts per hour, per cell (i.e., when extrapolated over a potential 2-week exposure period, equivalent to over 87,000 counts per cell).

[3] = tested on: QH-TRT Barrett's esophagus cell line; assay: Release and retention of 32P counts after washing and overnight incubation in complete medium; format: cell-based; conditions: two hour incubation, three washes, overnight at 37°C in complete medium
Procedure: as §1

[4] = tested on: SEG1 esophageal adenocarcinoma cell line; assay: as above; format: cell-based; conditions: two hour incubation, three washes, overnight at 37°C in complete medium
Procedure: as §1

colon cancer cell lines = assay: as above; format: cell-based; conditions: two hour incubation, three washes
Procedure: as §1

[5] = tested on: seven avidly binding cell lines; assay: as above; format: cell-based; conditions: all seven avidly binding lines
Procedure: as §1

[6] = tested on: Caco-2 colon adenocarcinoma cell line
Procedure: as §2

[7] = two hour incubation, three washes, 10,000 cells
[8] = two hours incubation, three wash steps, overnight incubation in medium

Q: What does the source list for GSRRASVASA [MA5]?
A: binding (in words) ([1]; two hour incubation with 32P-labeled peptide, eleven of eighteen cell lines): did not bind; average 32P counts bound, remaining eleven cell lines along with one blank well [1, 7]: 365 cpm; mean values of 32P counts bound, blank wells and nonbinding cell lines [1, 7]: less than 550 cpm; retention of radioactivity (in words) [2]: very strong retention of radioactivity; time course of release of counts (in words) (Caco-2 cells; 48-hour time period after two hour incubation and washing, triplicate determinations): majority of the total counts released over the 48 hour time period are released by nine hours of incubation; counts retained by cells after overnight incubation (Caco-2 cells; average of triplicate wells containing 10,000 cells each, two hour incubation, washes, overnight in medium): 58,305 cpm; counts per cell extrapolated over a potential 2-week exposure period (Caco-2 cells; extrapolated): over 87,000 counts per cell; counts per cell per day, extrapolated (Caco-2 cells; extrapolated from 5.8 cpm per cell): over 8,300 counts per cell per day; originally retained 32P isotope released (Caco-2 cells; [8]): 88%; originally retained 32P isotope retained by cells (Caco-2 cells; [8]): 12%; original counts retained after overnight incubation [3]: 39%; original counts retained after overnight incubation [4]: 37%; radioactive counts initially retained that were released into the medium (colon cancer cell lines; 200 ul complete medium, overnight at 37°C): Approximately 88%; initially retained radioactive counts retained by cells (colon cancer cell lines; overnight at 37°C in complete medium): approximately 12%; radioactivity released after an overnight incubation [5]: 63% to 88; ratio of cpm retained by Caco-2 to the average of the eleven nonbinding cell lines ([6]; Caco-2): 818; share of the total radioactive counts present in the incubation well retained by cells ([6]; after two-hour incubation): approximately 18%; radioactive dose transferred per cell ([6]; two hour incubation, wash, immediate determination of retained radioactivity): over 29 counts per minute per cell; retention difference between variants (MA2 vs MA5) ([6]; two hours' incubation, counts bound as percentage of total counts): 70 fold
